From PMC9687610, “Adenosine-Mimicking Derivatives of 3-Aminopyrazine-2-Carboxamide: Towards Inhibitors of Prolyl-tRNA Synthetase with Antimycobacterial Activity” (Biomolecules, 2022)
In brackets after ≈: the same amount, converted by molar mass. Like-named read-outs stand apart in the source and are kept apart here.

Experiments:
[1] = tested on: Lichtheimia corymbifera CCM 8077; assay: Antifungal microdilution broth (EUCAST), LC; assay type: cell-based; details: Lichtheimia corymbifera, CCM8077; read after 24 h; read-out: LC MIC
[2] = tested on: Staphylococcus epidermidis CCM 4418 (ATCC 12228); assay: Antibacterial microdilution broth (EUCAST), SE; assay type: cell-based; details: read after 24 h, read-out: SE MIC
[3] = tested on: Trichophyton interdigitale CCM 8377 (ATCC 9533); assay: Antifungal microdilution broth (EUCAST), TI; assay type: cell-based; details: Trichophyton interdigitale, 72 h, read-out: TI MIC
[4] = tested on: Candida krusei CCM 8271 (ATCC 6258); assay: Antifungal microdilution broth (EUCAST), CK; assay type: cell-based; details: Pichia kudriavzevii; read after 24 h; read-out: CK MIC
[5] = tested on: Klebsiella pneumoniae CCM 4415 (ATCC 10031); assay: Antibacterial microdilution broth (EUCAST), KP; details: read after 24 h
[6] = tested on: Acinetobacter baumannii DSM 30007 (ATCC 19606); assay: Antibacterial microdilution broth (EUCAST), ACI; assay type: cell-based; details: Acinetobacter baumannii; read after 24 h; read-out: ACI MIC
[7] = tested on: Aspergillus fumigatus ATCC 204305; assay: Antifungal microdilution broth (EUCAST), AF; assay type: cell-based; details: Aspergillus fumigatus, ATCC204305; read after 24 h; read-out: AF MIC
[8] = tested on: Candida tropicalis CCM 8264 (ATCC 750); assay: Antifungal microdilution broth (EUCAST), CT; assay type: cell-based; details: Candida tropicalis; read after 24 h; read-out: CT MIC
[9] = tested on: Candida albicans CCM 8320 (ATCC 24433); assay: Antifungal microdilution broth (EUCAST), CA; assay type: cell-based; details: Candida albicans; read after 24 h; read-out: CA MIC
[10] = tested on: Pseudomonas aeruginosa CCM 3955 (ATCC 27853); assay: Antibacterial microdilution broth (EUCAST), PA; assay type: cell-based; details: Pseudomonas aeruginosa; read after 24 h; read-out: PA MIC
[11] = tested on: Staphylococcus aureus subsp. aureus methicillin-resistant (MRSA) CCM 4750 (ATCC 43300); assay: Antibacterial microdilution broth (EUCAST), MRSA; assay type: cell-based; details: Staphylococcus aureus; read after 24 h; read-out: MRSA MIC
[12] = tested on: M. aurum DSM 43999 (ATCC 23366); assay: Microplate Alamar Blue Assay (MABA), M. aurum; assay type: cell-based; details: Mycolicibacterium aurum; MABA, resazurin after 72 h; read-out: M. aurum MIC
[13] = tested on: Aspergillus flavus CCM 8363; assay: Antifungal microdilution broth (EUCAST), AFla; assay type: cell-based; details: Aspergillus flavus, CCM8363; read after 24 h; read-out: AFla MIC
[14] = tested on: Staphylococcus aureus subsp. aureus CCM 4223 (ATCC 29213); assay: Antibacterial microdilution broth (EUCAST), SA; assay type: cell-based; details: Staphylococcus aureus; read after 24 h; read-out: SA MIC
[15] = tested on: Mycobacterium smegmatis DSM 43465 (ATCC 607); assay: Microplate Alamar Blue Assay (MABA), M. smegmatis; assay type: cell-based; details: Mycolicibacterium smegmatis; MABA, resazurin after 48 h; read-out: M. smegmatis MIC
[16] = tested on: Enterococcus faecalis CCM 4224 (ATCC 29212); assay: Antibacterial microdilution broth (EUCAST), EF; assay type: cell-based; details: Enterococcus faecalis; read after 24 h; read-out: EF MIC
[17] = tested on: Candida parapsilosis CCM 8260 (ATCC 22019); assay: Antifungal microdilution broth (EUCAST), CP; assay type: cell-based; details: Lodderomyces parapsilosis; read after 24 h; read-out: CP MIC
[18] = tested on: HepG2 human hepatocellular carcinoma cells; assay: In vitro HepG2 cytotoxicity (CellTiter 96); details: * limit = highest evaluated concentration (precipitation in medium), ** over the 1000 µM limit
[19] = tested on: Mycobacterium tuberculosis H37Ra ITM-M006710 (ATCC 9431); assay: Microplate Alamar Blue Assay (MABA), Mtb H37Ra; assay type: cell-based; details: for MIC: Mycobacterium tuberculosis, 120 h, pH 6.6, MABA, Middlebrook 7H9 broth pH 6.6, resazurin after 120 h, read-out: Mtb H37Ra MIC; for antimycobacterial activity (in words): activity refers to Mtb H37Ra from the primary screening if not otherwise stated
[20] = tested on: Escherichia coli CCM 3954 (ATCC 25922); assay: Antibacterial microdilution broth (EUCAST), EC; assay type: cell-based; details: Escherichia coli; read after 24 h; read-out: EC MIC
[21] = Homo sapiens, HepG2, 24 h, read-out: HepG2 IC50, 24 h incubation

SMILES | MIC [1] [µM] | MIC [2] [µM] | MIC [3] [µM] | MIC [4] [µM] | KP MIC [5] [µM] | MIC [6] [µM] | MIC [7] [µM] | melting point [°C] | MIC [8] [µM] | MIC [9] [µM] | MIC [10] [µM] | MIC [11] [µM] | MIC [12] [µg/mL] | MIC [13] [µM] | MIC [14] [µM] | MIC [15] [µg/mL] | MIC [16] [µM] | MIC [17] [µM] | IC50 [18, 21] [µM] | MIC [19] [µg/mL] | further results
NC(=O)c1nccnc1NC(=O)c1ccccc1C(F)(F)F [Compound 20] | > 500 | > 500 | > 500 | > 500 | > 500 | > 500 | > 500 | 201.5 to 202.4 | > 500 | > 500 | > 500 | > 500 | ≥ 500 | > 500 | > 500 | ≥ 500 | > 500 | > 500 | > 250 | 500 (≈ 1610 µM) | MIC [20]: > 500 µM
NC(=O)c1nccnc1NC(=O)c1ccc([N+](=O)[O-])cc1 [Compound 21, 3-(4-nitrobenzamido)pyrazine-2-carboxamide] | > 125 | > 125 | > 125 | > 125 | > 125 | > 125 | > 125 | > 300 | > 125 | > 125 | > 125 | > 125 | ≥ 500 | > 125 | > 125 | 250 (≈ 870 µM) | > 125 | > 125 | > 100 | 250 (≈ 870 µM) | MIC [20]: > 125 µM
NC(=O)c1nccnc1NC(=O)Cc1ccc(F)cc1 [Compound 25] | > 250 | > 250 | > 250 | > 250 | > 250 | > 250 | > 250 | 225.3 to 227.3 | > 250 | > 250 | > 250 | > 250 | ≥ 250 | > 250 | > 250 | ≥ 250 | > 250 | > 250 | > 100 | ≥ 250 | antimycobacterial activity (in words) [19]: inactive; MIC [20]: > 250 µM
NC(=O)c1nccnc1NC(=O)CCc1ccccc1 [Compound 26] | > 500 | > 500 | > 500 | > 500 | > 500 | > 500 | > 500 | 160.3 to 161.5 | > 500 | > 500 | > 500 | > 500 | ≥ 500 | > 500 | > 500 | ≥ 500 | > 500 | > 500 | > 500 | 125 (≈ 462 µM) | antimycobacterial activity (in words) [19]: inactive; MIC [20]: > 500 µM
NC(=O)c1nccnc1NC(=O)C1CCCCC1 [Compound 27] | > 500 | > 500 | > 500 | > 500 | > 500 | > 500 | > 500 | 105.5 to 107 | > 500 | > 500 | > 500 | > 500 | ≥ 500 | > 500 | > 500 | 250 (≈ 1010 µM) | > 500 | > 500 | > 1000 | 125 (≈ 503 µM) | MIC [20]: > 500 µM
CCCC(=O)Nc1nccnc1C(N)=O [Compound 29] | > 500 | > 500 | > 500 | > 500 | > 500 | > 500 | > 500 | 158.7 to 159.5 | > 500 | > 500 | > 500 | > 500 | ≥ 500 | > 500 | > 500 | ≥ 500 | > 500 | > 500 | > 1000 | ≥ 500 | MIC [20]: > 500 µM
CCCCCC(=O)Nc1nccnc1C(N)=O [Compound 30] | > 500 | > 500 | > 500 | > 500 | > 500 | > 500 | > 500 | 138.4 to 139 | > 500 | > 500 | > 500 | > 500 | ≥ 250 | > 500 | > 500 | ≥ 500 | > 500 | > 500 | 560 | ≥ 500 | MIC [20]: > 500 µM
CCCCCCC(=O)Nc1nccnc1C(N)=O [Compound 31] | > 125 | > 125 | > 125 | > 125 | > 125 | > 125 | > 125 | 131.5 to 132.1 | > 125 | > 125 | > 125 | > 125 | ≥ 500 | > 125 | > 125 | ≥ 500 | > 125 | > 125 | > 250 | ≥ 500 | MIC [20]: > 125 µM
CCCCCCCC(=O)Nc1nccnc1C(N)=O [Compound 32] | > 250 | > 250 | > 250 | > 250 | > 250 | > 250 | > 250 | 127.9 to 129.3 | > 250 | > 250 | > 250 | > 250 | 125 (≈ 473 µM) | > 250 | > 250 | 250 (≈ 946 µM) | > 250 | > 250 | > 1000 | 250 (≈ 946 µM) | MIC [20]: > 250 µM
CNC(=O)c1nccnc1NC(=O)c1ccc(C)cc1 [Compound 33] | > 500 | > 500 | > 500 | > 500 | > 500 | > 500 | > 500 | 178.4 to 179.5 | > 500 | > 500 | > 500 | > 500 | 125 (≈ 462 µM) | > 500 | > 500 | ≥ 500 | > 500 | > 500 | 765 | 250 (≈ 925 µM) | IC50 ([18]; read-out: HepG2 IC50, 24 h incubation): 764 µM; MIC [20]: > 500 µM
CNC(=O)c1nccnc1NC(=O)c1ccc(Cl)cc1 [Compound 34] | > 125 | > 125 | > 125 | > 125 | > 125 | > 125 | > 125 | 204.2 to 205.1 | > 125 | > 125 | > 125 | > 125 | ≥ 500 | > 125 | > 125 | ≥ 500 | > 125 | > 125 | > 100 | ≥ 500 | MIC [20]: > 125 µM
